Experimental data from patent US20230085307A1, “PYRIDAZINONE COMPOUND AND HERBICIDE” (NISSAN CHEMICAL CORPORATION, priority 2019, published 2023).

Experiments:
velvetleaf [1] = assay: Test Example 4: herbicidal effect by soil treatment (Table 19, symbol M); type: in vivo, velvetleaf (Abutilon theophrasti); settings: amount of applied herbicide 320 g/ha
Outline: (§1)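 Applied as a water-diluted emulsion, the compound was sprayed onto soil covering newly sown seeds. Evaluation came three weeks after application, in a greenhouse held at 25° C. to 30° C.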

chickweed [2] = assay: Test Example 4: herbicidal effect by soil treatment (Table 19, symbol P); type: in vivo, common chickweed (Stellaria media); settings: amount of applied herbicide 320 g/ha
Outline: as §1

velvetleaf [3] = assay: Test Example 5: herbicidal effect by foliage application, plastic box (Table 20, symbol M); type: in vivo, velvetleaf (Abutilon theophrasti); settings: foliage application, 320 g/ha, three weeks after application
Outline: (§2)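 Sow seeds spot-wise in sterilized diluvial soil; cover with ~1.5 cm soil. Grow 14 days in greenhouse, 25° C. to 30° C. Spray foliage with emulsion diluted to predetermined amount. Rate effect after 3 weeks.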

chickweed [4] = assay: Test Example 5: herbicidal effect by foliage application, plastic box (Table 20, symbol P); type: in vivo, common chickweed (Stellaria media); settings: foliage application, 320 g/ha, three weeks after application
Outline: as §2

green foxtail [5] = assay: Test Example 5: herbicidal effect by foliage application, plastic box (Table 20, symbol G); type: in vivo, green foxtail (Setaria viridis); settings: foliage application, 320 g/ha, three weeks after application
Outline: as §2

persian speedwell [6] = assay: Test Example 4: herbicidal effect by soil treatment (Table 19, symbol R); type: in vivo, Persian speedwell (Veronica persica); settings: amount of applied herbicide 320 g/ha
Outline: as §1

lambsquarters [7] = assay: Test Example 4: herbicidal effect by soil treatment (Table 19, symbol O); type: in vivo, lambsquarters (Chenopodium album); settings: amount of applied herbicide 320 g/ha
Outline: as §1

redroot pigweed [8] = assay: Test Example 5: herbicidal effect by foliage application, plastic box (Table 20, symbol N); type: in vivo, redroot pigweed (Amaranthus retroflexus); settings: foliage application, 320 g/ha, three weeks after application
Outline: as §2

Italian ryegrass [9] = assay: Test Example 4: herbicidal effect by soil treatment (Table 19, symbol K); type: in vivo, Italian ryegrass (Lolium multiflorum); settings: amount of applied herbicide 320 g/ha
Outline: as §1

southern crabgrass [10] = assay: Test Example 5: herbicidal effect by foliage application, plastic box (Table 20, symbol F); type: in vivo, southern crabgrass (Digitaria ciliaris); settings: foliage application, 320 g/ha, three weeks after application
Outline: as §2

false cleavers = assay: Test Example 4: herbicidal effect by soil treatment (Table 19, symbol Q); type: in vivo, false cleavers (Galium spurium); settings: amount of applied herbicide 320 g/ha
Outline: as §1

Italian ryegrass [11] = assay: Test Example 5: herbicidal effect by foliage application, plastic box (Table 20, symbol K); type: in vivo, Italian ryegrass (Lolium multiflorum); settings: foliage application, 320 g/ha, three weeks after application
Outline: as §2

barnyard grass [12] = assay: Test Example 5: herbicidal effect by foliage application, plastic box (Table 20, symbol H); type: in vivo, barnyard grass (Echinochloa crus-galli); settings: foliage application, 320 g/ha, three weeks after application
Outline: as §2

windgrass [13] = assay: Test Example 4: herbicidal effect by soil treatment (Table 19, symbol L); type: in vivo, windgrass (Apera spica-venti); settings: amount of applied herbicide 320 g/ha
Outline: as §1

green foxtail [14] = assay: Test Example 4: herbicidal effect by soil treatment (Table 19, symbol G); type: in vivo, green foxtail (Setaria viridis); settings: amount of applied herbicide 320 g/ha
Outline: as §1

lambsquarters [15] = assay: Test Example 5: herbicidal effect by foliage application, plastic box (Table 20, symbol O); type: in vivo, lambsquarters (Chenopodium album); settings: foliage application, 320 g/ha, three weeks after application
Outline: as §2

persian speedwell [16] = assay: Test Example 5: herbicidal effect by foliage application, plastic box (Table 20, symbol R); type: in vivo, Persian speedwell (Veronica persica); settings: foliage application, 320 g/ha, three weeks after application
Outline: as §2

wild oat [17] = assay: Test Example 5: herbicidal effect by foliage application, plastic box (Table 20, symbol I); type: in vivo, wild oat (Avena fatua); settings: foliage application, 320 g/ha, three weeks after application
Outline: as §2

blackgrass [18] = assay: Test Example 5: herbicidal effect by foliage application, plastic box (Table 20, symbol J); type: in vivo, blackgrass (Alopecurus myosuroides); settings: foliage application, 320 g/ha, three weeks after application
Outline: as §2

blackgrass [19] = assay: Test Example 4: herbicidal effect by soil treatment (Table 19, symbol J); type: in vivo, blackgrass (Alopecurus myosuroides); settings: amount of applied herbicide 320 g/ha
Outline: as §1

southern crabgrass [20] = assay: Test Example 4: herbicidal effect by soil treatment (Table 19, symbol F); type: in vivo, southern crabgrass (Digitaria ciliaris); settings: amount of applied herbicide 320 g/ha
Outline: as §1

barnyard grass [21] = assay: Test Example 4: herbicidal effect by soil treatment (Table 19, symbol H); type: in vivo, barnyard grass (Echinochloa crus-galli); settings: amount of applied herbicide 320 g/ha
Outline: as §1

wild oat [22] = assay: Test Example 4: herbicidal effect by soil treatment (Table 19, symbol I); type: in vivo, wild oat (Avena fatua); settings: amount of applied herbicide 320 g/ha
Outline: as §1

windgrass [23] = assay: Test Example 5: herbicidal effect by foliage application, plastic box (Table 20, symbol L); type: in vivo, windgrass (Apera spica-venti); settings: foliage application, 320 g/ha, three weeks after application
Outline: as §2

redroot pigweed [24] = assay: Test Example 4: herbicidal effect by soil treatment (Table 19, symbol N); type: in vivo, redroot pigweed (Amaranthus retroflexus); settings: amount of applied herbicide 320 g/ha
Outline: as §1

Chinese sprangletop = assay: Test Example 3: herbicidal effect by foliage application, Wagner pot (Table 18, symbol D); type: in vivo, chinese sprangletop (Leptochloa chinensis); settings: amount of applied herbicide 320 g/ha
Outline: (§3)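 Plants were sown in alluvial soil held under 0.1–0.5 cm standing water and grown 14 days in a greenhouse at 25–30 °C. An emulsifiable formulation, water-diluted to the set dose, was then sprayed onto the foliage, and effects were scored three weeks later using previously defined criteria.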

barnyard grass [25] = assay: Test Example 3: herbicidal effect by foliage application, Wagner pot (Table 18, symbol H); type: in vivo, barnyard grass (Echinochloa crus-galli); settings: amount of applied herbicide 320 g/ha
Outline: as §3

rice flat sedge = assay: Test Example 3: herbicidal effect by foliage application, Wagner pot (Table 18, symbol E); type: in vivo, rice flat sedge (Cyperus iria); settings: amount of applied herbicide 320 g/ha
Outline: as §3

Cc1nn(C)c(=O)c(-c2c(-c3ccc(SCC#N)cc3)sc3ccc(F)cc23)c1O [2-423]
herbicidal effect, M: velvetleaf (velvetleaf [1]): 1 (Herbicidal rate of 5% or more and less than 20%) | herbicidal effect, P: chickweed (chickweed [2]): 5 (Herbicidal rate of 90% or more (almost completely withered)) | M: velvetleaf, herbicidal effect grade (velvetleaf [3]): 5 (Herbicidal rate of 90% or more (almost completely withered)) | P: chickweed, herbicidal effect grade (chickweed [4]): 5 (Herbicidal rate of 90% or more (almost completely withered)) | G: green foxtail, herbicidal effect grade (green foxtail [5]): 5 (Herbicidal rate of 90% or more (almost completely withered)) | herbicidal effect, R: persian speedwell (persian speedwell [6]): 4 (Herbicidal rate of 70% or more and less than 90%) | herbicidal effect, O: lambsquarters (lambsquarters [7]): 4 (Herbicidal rate of 70% or more and less than 90%) | N: redroot pigweed, herbicidal effect grade (redroot pigweed [8]): 5 (Herbicidal rate of 90% or more (almost completely withered)) | herbicidal effect, K: Italian ryegrass (Italian ryegrass [9]): 3 (Herbicidal rate of 40% or more and less than 70%) | F: southern crabgrass, herbicidal effect grade (southern crabgrass [10]): 0 (Herbicidal rate of 5% or less (almost no effect)) | herbicidal effect, Q: false cleavers (false cleavers): 0 (Herbicidal rate of 5% or less (almost no effect)) | K: Italian ryegrass, herbicidal effect grade (Italian ryegrass [11]): 5 (Herbicidal rate of 90% or more (almost completely withered)) | H: barnyard grass, herbicidal effect grade (barnyard grass [12]): 5 (Herbicidal rate of 90% or more (almost completely withered)) | herbicidal effect, L: windgrass (windgrass [13]): 1 (Herbicidal rate of 5% or more and less than 20%) | herbicidal effect, G: green foxtail (green foxtail [14]): 4 (Herbicidal rate of 70% or more and less than 90%) | O: lambsquarters, herbicidal effect grade (lambsquarters [15]): 5 (Herbicidal rate of 90% or more (almost completely withered)) | R: persian speedwell, herbicidal effect grade (persian speedwell [16]): 5 (Herbicidal rate of 90% or more (almost completely withered)) | I: wild oat, herbicidal effect grade (wild oat [17]): 5 (Herbicidal rate of 90% or more (almost completely withered)) | J: blackgrass, herbicidal effect grade (blackgrass [18]): 4 (Herbicidal rate of 70% or more and less than 90%) | herbicidal effect, J: blackgrass (blackgrass [19]): 0 (Herbicidal rate of 5% or less (almost no effect)) | herbicidal effect, F: southern crabgrass (southern crabgrass [20]): 0 (Herbicidal rate of 5% or less (almost no effect)) | herbicidal effect, H: barnyard grass (barnyard grass [21]): 1 (Herbicidal rate of 5% or more and less than 20%) | herbicidal effect, I: wild oat (wild oat [22]): 0 (Herbicidal rate of 5% or less (almost no effect)) | L: windgrass, herbicidal effect grade (windgrass [23]): 5 (Herbicidal rate of 90% or more (almost completely withered)) | herbicidal effect, N: redroot pigweed (redroot pigweed [24]): 5 (Herbicidal rate of 90% or more (almost completely withered))

Cc1nn(C)c(=O)c(-c2c(-c3ccc(SC(C)C)cc3)oc3ccc(F)cc23)c1O [9-041]
M: velvetleaf, herbicidal effect grade (velvetleaf [1]): 1 (Herbicidal rate of 5% or more and less than 20%) | P: chickweed, herbicidal effect grade (chickweed [2]): 1 (Herbicidal rate of 5% or more and less than 20%) | Herbicidal effect on D (Chinese sprangletop), foliage application (Chinese sprangletop): 2 (Herbicidal rate of 20% or more and less than 40%) | herbicidal effect on velvetleaf (M) (velvetleaf [3]): 3 (Herbicidal rate of 40% or more and less than 70%) | Herbicidal effect on H (barnyard grass), foliage application (barnyard grass [25]): 5 (Herbicidal rate of 90% or more (almost completely withered)) | herbicidal effect on green foxtail (G) (green foxtail [5]): 4 (Herbicidal rate of 70% or more and less than 90%) | R: persian speedwell, herbicidal effect grade (persian speedwell [6]): 4 (Herbicidal rate of 70% or more and less than 90%) | O: lambsquarters, herbicidal effect grade (lambsquarters [7]): 4 (Herbicidal rate of 70% or more and less than 90%) | K: Italian ryegrass, herbicidal effect grade (Italian ryegrass [9]): 5 (Herbicidal rate of 90% or more (almost completely withered)) | herbicidal effect on southern crabgrass (F) (southern crabgrass [10]): 0 (Herbicidal rate of 5% or less (almost no effect)) | Q: false cleavers, herbicidal effect grade (false cleavers): 0 (Herbicidal rate of 5% or less (almost no effect)) | herbicidal effect on Italian ryegrass (K) (Italian ryegrass [11]): 5 (Herbicidal rate of 90% or more (almost completely withered)) | herbicidal effect on barnyard grass (H) (barnyard grass [12]): 3 (Herbicidal rate of 40% or more and less than 70%) | L: windgrass, herbicidal effect grade (windgrass [13]): 0 (Herbicidal rate of 5% or less (almost no effect)) | G: green foxtail, herbicidal effect grade (green foxtail [14]): 4 (Herbicidal rate of 70% or more and less than 90%) | herbicidal effect on lambsquarters (O) (lambsquarters [15]): 4 (Herbicidal rate of 70% or more and less than 90%) | herbicidal effect on persian speedwell (R) (persian speedwell [16]): 5 (Herbicidal rate of 90% or more (almost completely withered)) | herbicidal effect on wild oat (I) (wild oat [17]): 3 (Herbicidal rate of 40% or more and less than 70%) | herbicidal effect on blackgrass (J) (blackgrass [18]): 3 (Herbicidal rate of 40% or more and less than 70%) | J: blackgrass, herbicidal effect grade (blackgrass [19]): 0 (Herbicidal rate of 5% or less (almost no effect)) | F: southern crabgrass, herbicidal effect grade (southern crabgrass [20]): 3 (Herbicidal rate of 40% or more and less than 70%) | H: barnyard grass, herbicidal effect grade (barnyard grass [21]): 1 (Herbicidal rate of 5% or more and less than 20%) | I: wild oat, herbicidal effect grade (wild oat [22]): 0 (Herbicidal rate of 5% or less (almost no effect)) | Herbicidal effect on E (rice flat sedge), foliage application (rice flat sedge): 5 (Herbicidal rate of 90% or more (almost completely withered)) | herbicidal effect on windgrass (L) (windgrass [23]): 4 (Herbicidal rate of 70% or more and less than 90%) | N: redroot pigweed, herbicidal effect grade (redroot pigweed [24]): 5 (Herbicidal rate of 90% or more (almost completely withered))
